Results: patent US6846489B1, “Vaccines containing a saponin and a sterol” (priority 1995, dated 2005)

Key:
erythrocytes = assay: Lytic activity of QS21 on erythrocytes (hemolysis); type: cell-based; conditions: for lytic activity: expressed as μg QS21 equivalent for the same hemolysis, 5 μg QS21 (or digitonin)
Description: When QS21 is added to erythrocytes, they lyse them releasing hemoglobin. This lytic activity can also be measured using liposomes which contain cholesterol in their membrane and an entrapped fluorescent dye, carboxyfluorescein—as the liposomes are lysed the dye is released which can be monitored by fluorescence spectroscopy.
If the QS21 first associates with cholesterol in liposomes it is no longer lyric towards cells or other liposomes.
In the presence of phospholipids the cholesterol resides within the phospholipid bilayer which can form a stable suspension of vesicles called liposomes. To avoid the requirement to add phospholipids a soluble derivative was tried.

[1] = Lytic activity of QS21 on fluorescent liposomes (carboxyfluorescein release); conditions: fluorescent liposomes without cholesterol in their membrane
Description: When QS21 is added to erythrocytes, they lyse them releasing hemoglobin. […]
The same holds true using fluorescent liposomes to measure the lytic activity.

[2] = Base-mediated hydrolysis of QS21 monitored by reverse-phase HPLC; type: physicochemical; conditions: pH 9, 37° C.
Source text: This hydrolysis can be monitored by measuring the decrease in the peak corresponding to QS21 on reverse-phase HPLC.

[3] = type: in vivo, rabbits
Source text: 1.6 Reactogenicity intra-muscularly in rabbits
Since the CPK increase is a measure of muscle damage this indicates decreased muscle damage and is confirmed by the histopathology.

[4] = Binding of the liposome-QS21 complex to alum; type: physicochemical; conditions: incubated with alum (Al(OH)3) in PBS
Description: QS21 was incubated with neutral liposomes containing excess cholesterol as well as radioactive cholesterol and then incubated with alum (Al(OH)3) in PBS.

HSV gD = conditions: antigen gD (5 μg)

Row | Compound | lytic activity (erythrocytes) [µg] | lytic activity on erythrocytes (erythrocytes; QS21 incubated with liposomes containing cholesterol before adding to erythrocytes, 1:1 ratio cholesterol to QS21) | lysis of fluorescent liposomes [1] | hydrolysis of the QS21 ([2]; 16 hours, liposomes containing cholesterol added 2:1 (chol:QS21 w/w)) | QS21 degraded ([2]; 16 hours, liposomes containing cholesterol, ratio 1:1) [%] | QS21 hydrolysed ([2]; within 16 hours, QS21 alone) [%] | toxicity in rabbits (by CPK) ([3]; QS21 associated with cholesterol-containing liposomes, Chol:QS21=6:1) | CPK Day0 Mean ([3]; mean of 5 rabbits) [U.I./L] | CPK Day1 Mean ([3]; mean of 5 rabbits) [U.I./L] | CPK Day3 Mean ([3]; mean, value in parentheses left out) [U.I./L] | binding to alum in PBS [4] | IgG1 %, isotypes 7 days post II (HSV gD) [%] | IgG1, isotypes 7 days post II (HSV gD) [µg/mL] | IgG2a %, isotypes 7 days post II (HSV gD) [%] | IgG2a, isotypes 7 days post II (HSV gD) [µg/mL] | IgG2b %, isotypes 7 days post II (HSV gD) [%] | IgG2b, isotypes 7 days post II (HSV gD) [µg/mL] | IgG 7 post II (GMT) (HSV gD) | IgG 14 post II (GMT) (HSV gD) | reduction in the lytic activity of QS21 (erythrocytes; 2000 fold excess (w/w) over QS21)
1 | C[C@@H]1CC[C@@]2(OC1)O[C@H]1[C@@H](O)[C@H]3[C@@H]4CC[C@H]5C[C@@H](O[C@@H]6O[C@H](CO)[C@H](O[C@@H]7O[C@H](CO)[C@@H](O)[C@H](O[C@@H]8OC[C@@H](O)[C@H](O)[C@H]8O)[C@H]7O[C@@H]7O[C@H](CO)[C@H](O)[C@H](O[C@@H]8O[C@H](CO)[C@@H](O)[C@H](O)[C@H]8O)[C@H]7O)[C@H](O)[C@H]6O)[C@H](O)C[C@]5(C)[C@H]4CC[C@]3(C)[C@H]1[C@@H]2C [digitonin] | 5 |  |  |  |  |  |  |  |  |  |  |  |  |  |  |  |  |  |  | 
2 | QS21 | 5 | no lytic activity is detected | no lysis | no hydrolysis | 10 | 90 | non-toxic | 1369 | 6261 | 1212 | neither neutral liposomes nor QS21 bind to alum | 66 | 156 | 28 | 67 | 6 | 14 | 3468 | 4132 | 
3 | Polyoxyethanyl-cholesterol sebacate |  |  |  |  |  |  |  |  |  |  |  |  |  |  |  |  |  |  |  | no reduction
